Test results from article PMC9781217, “Discovery of Novel and Selective G-Protein Coupled Receptor 120 (GPR120) Agonists for the Treatment of Type 2 Diabetes Mellitus” (Molecules, 2022).
Read-outs that look alike come from different tables or passages of the source.

How the values were obtained:
C57BL/6 mice = assay: Oral glucose tolerance test (OGTT) in normal C57BL/6 mice; assay type: in vivo
Procedure: GPR120 agonists have been reported to increase GLP-1 secretion and improve glucose tolerance in vivo [28]. […] Compound 14d was orally administered at doses of 3, 10, 30, and 100 mg/kg, 30 min before the oral glucose challenge at a dose volume of 3 g/kg. Glucose levels were measured from 30 min before glucose challenge to 120 min after the glucose challenge.
Normal male C57BL/6 mice aged 9 weeks were used for the OGTT for compound 14d. C57BL/6 mice were weighed and randomly divided into six groups (eight mice per group) after 12 h of fasting. The test compounds were dissolved in 0.5% MC and vortexed before the study initiation. […] The exact dose volume was calculated separately for each animal. Blood samples were collected via the tail tip 30 min before the compound dose, at t = 0 (immediately before glucose loading), and 15, 30, 60, and 120 min after glucose loading. Blood glucose levels were measured using blood glucose test strips (Sannuo GA-3 type; Changsha, China). Glucose values were entered into an Excel sheet and plotted using GraphPad Prism software.

DIO mice = assay: Anti-hyperglycemic effects (OGTT, insulin) in DIO mice; assay type: in vivo, C57BL/6 mice; conditions: 20 mg/kg oral
Procedure: Blood samples were collected with retro-orbital sinus puncture, and glucose levels were measured in accordance with the OGTT in normal mice. Plasma insulin levels were measured using a mouse insulin RIA kit (Beijing North Institute of Biological Technology, Beijing, China).

mouse GPR120 (mGPR120) = target: T1, mouse GPR120 (mGPR120) (Mus musculus, UniProt Q7TMA4); assay: Calcium flux assay in CHO cells expressing mouse GPR120
T1 sequence (Q7TMA4 1-361): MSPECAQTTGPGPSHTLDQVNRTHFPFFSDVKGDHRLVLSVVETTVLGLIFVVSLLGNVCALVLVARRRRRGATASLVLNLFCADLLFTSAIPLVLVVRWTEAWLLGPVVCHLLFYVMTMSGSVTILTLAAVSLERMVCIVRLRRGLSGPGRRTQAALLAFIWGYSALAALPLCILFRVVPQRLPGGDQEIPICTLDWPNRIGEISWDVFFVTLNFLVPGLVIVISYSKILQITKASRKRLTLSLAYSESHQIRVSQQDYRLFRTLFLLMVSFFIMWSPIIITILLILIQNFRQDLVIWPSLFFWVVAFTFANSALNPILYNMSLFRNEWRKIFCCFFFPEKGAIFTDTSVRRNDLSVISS
Procedure: (§1) A calcium flux assay was performed to assess the agonist activity of the test compounds against the hGPR120 (mGPR120) and hGPR40 (mGPR40) receptors. […] The medium in the wells was gently discarded, and the wells were washed with Hank’s balanced salt solution (HBSS; 100 μL per well). […] The cells were then washed thrice in HBSS and allowed to equilibrate for 10 min before conducting the assay. Test compounds dissolved in dimethyl sulfoxide were diluted in HBSS at various concentrations and added to Fluo-4 AM-containing cells, and intracellular Ca^2+ concentrations were measured using FlexStation3 Molecular Devices. The EC50 value of each compound was calculated using GraphPad Prism software (version 5.0; GraphPad Software, San Diego, CA, USA).

mouse GPR40 (mGPR40) = mouse GPR40 (mGPR40) (Mus musculus, UniProt Q76JU9); assay: Calcium flux assay in CHO cells expressing mouse GPR40
Procedure: as §1

[1] = Pharmacokinetic analysis in C57BL/6 mice; assay type: in vivo
Procedure: The pharmacokinetic profiles of 10k and 14d were obtained from C57BL/6 mice. […] The pharmacokinetic profiles traces were shown in the Supplementary Materials (Figure S1, see Supporting Materials).
Plasma was collected and precipitated using two volumes of acetonitrile containing an internal standard. This was followed by centrifugation at 15.680 g for 10 min after vortexing for 5 min. The supernatant was diluted with acetonitrile and 10 µL of the supernatant was analyzed by Waters LC-PDA-MS/MS to determine plasma drug levels. Pharmacokinetic parameters were determined using mean data from four mice at each time point. Statistical analysis of the data was performed using the DAS 2.1.1 statistical software program (BioVoice, Shanghai, China).

human GPR120 (hGPR120) = target: T2, human GPR120 (hGPR120) (Homo sapiens, UniProt Q5NUL3); assay: Calcium flux assay in hGPR120-transfected CHO cells
T2 sequence (Q5NUL3 1-361): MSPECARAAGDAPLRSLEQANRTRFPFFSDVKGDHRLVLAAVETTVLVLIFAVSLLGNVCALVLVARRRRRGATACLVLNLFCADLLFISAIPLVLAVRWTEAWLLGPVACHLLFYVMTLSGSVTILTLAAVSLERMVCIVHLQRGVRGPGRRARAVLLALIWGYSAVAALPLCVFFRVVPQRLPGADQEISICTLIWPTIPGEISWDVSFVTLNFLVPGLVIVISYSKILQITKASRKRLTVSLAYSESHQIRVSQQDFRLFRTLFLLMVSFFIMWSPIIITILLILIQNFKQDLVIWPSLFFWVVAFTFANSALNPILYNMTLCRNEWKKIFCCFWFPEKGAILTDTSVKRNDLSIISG
Procedure: as §1

[2] = mGPR120, concentration response curve
[3] = hGPR120, concentration response curve

Sequence of mouse GPR40 (mGPR40) (Q76JU9 whole entry): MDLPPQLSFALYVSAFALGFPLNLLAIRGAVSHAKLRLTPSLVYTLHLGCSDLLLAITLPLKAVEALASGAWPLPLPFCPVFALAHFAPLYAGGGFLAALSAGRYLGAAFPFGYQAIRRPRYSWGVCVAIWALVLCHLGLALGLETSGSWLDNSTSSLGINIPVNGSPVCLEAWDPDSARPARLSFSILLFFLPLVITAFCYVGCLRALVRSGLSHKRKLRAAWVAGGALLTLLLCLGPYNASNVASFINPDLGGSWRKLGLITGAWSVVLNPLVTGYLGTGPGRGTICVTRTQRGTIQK

O=C(O)CCCOc1ccc(COc2cc(F)ccc2-c2ccc(F)cc2)cc1F [Compound 14d, 4-(4-(((4,4′-difluoro-[1,1′-biphenyl]-2-yl)oxy)methyl)-2-fluorophenoxy)butanoic acid]
blood glucose in OGTT (C57BL/6 mice; 30 mg/kg oral, glucose 3 g/kg, superior to TUG-891): significant reduction in blood glucose
dose dependence of glucose lowering and glucose AUC (C57BL/6 mice; 3, 10, 30, 100 mg/kg oral): dose-dependent
reduction of plasma glucose AUC (C57BL/6 mice; OGTT, 30 mg/kg oral, after 120 min, compared with glucose alone, p < 0.001): 25%
hypoglycemia during OGTT (C57BL/6 mice; normal C57BL/6 mice, during the experiment): no hypoglycemia was observed
hypoglycemic side effects (C57BL/6 mice; normal mice, even at a dose of 100 mg/kg): no hypoglycemic side effects were detected
insulin levels 30 min after the glucose challenge (DIO mice; compared to vehicle-treated mice): significantly increased insulin levels
glucose AUC0–120 min (DIO mice; glucose 2 g/kg): significantly lower than that of vehicle-treated mice
EC50 (mouse GPR120 (mGPR120)): 83.2 nM
Hill slope (mouse GPR120 (mGPR120); [2]): 0.7745
Hill slope (95%CI) (mouse GPR120 (mGPR120); [2]): 0.5397-1.0090
Selectivity (mouse GPR120 (mGPR120); mGPR120 over mGPR40): 152.6
melting point: 89 to 91 °C
EC50 (mouse GPR40 (mGPR40)): 12700 nM
metabolic stability in vivo ([1]; C57BL/6 mice, pharmacokinetics, in words): excellent metabolic stability
Tmax ([1]; male, mouse, plasma, po, C57BL/6 mice, 10 mg/kg gavage): 0.5 h
Cmax ([1]; male, mouse, plasma, po, C57BL/6 mice, 10 mg/kg gavage, 0.5% MC, mean ± SD of four mice): 2650 ± 288 ng/mL
AUC ([1]; male, mouse, plasma, po, C57BL/6 mice, 10 mg/kg gavage, mean ± SD of four mice): 5900 ± 584 ng·h/mL
half-life ([1]; male, mouse, plasma, po, C57BL/6 mice, 10 mg/kg gavage, mean ± SD of four mice, read-out: t1/2 (converted)): 1.6 ± 0.4 h
clearance ([1]; rodents, in words): low clearance
half-life ([1]; rodents, in words): long half-life
EC50 (human GPR120 (hGPR120)): 37.5 nM
Hill slope (human GPR120 (hGPR120); [3]): 0.9540
Hill slope (95%CI) (human GPR120 (hGPR120); [3]): 0.8259-1.0820
Agonist type from dose-dependent curves (human GPR120 (hGPR120); hGPR120 and mGPR120): full agonist
